From patent publication US20250262308A1, “Compositions and Methods for Modulating Dopamine Receptor Activity” (The Regents of the University of California, priority 2022, published 2025)

Experiments:
D2R = target: T1, D2R (Homo sapiens, UniProt P14416); assay: GIRK activation assay, whole-cell patch clamp, HEK293T co-transfected with M, D2R and GIRK1 (F137S); type: cell-based; details: for photo-agonism of D2R (GIRK inward current): P tethered to M, compared with saturating dopamine (1 μM)
T1 construct: expressed in transfected cells; host or cells: HEK293T
T1 sequence (P14416 whole entry): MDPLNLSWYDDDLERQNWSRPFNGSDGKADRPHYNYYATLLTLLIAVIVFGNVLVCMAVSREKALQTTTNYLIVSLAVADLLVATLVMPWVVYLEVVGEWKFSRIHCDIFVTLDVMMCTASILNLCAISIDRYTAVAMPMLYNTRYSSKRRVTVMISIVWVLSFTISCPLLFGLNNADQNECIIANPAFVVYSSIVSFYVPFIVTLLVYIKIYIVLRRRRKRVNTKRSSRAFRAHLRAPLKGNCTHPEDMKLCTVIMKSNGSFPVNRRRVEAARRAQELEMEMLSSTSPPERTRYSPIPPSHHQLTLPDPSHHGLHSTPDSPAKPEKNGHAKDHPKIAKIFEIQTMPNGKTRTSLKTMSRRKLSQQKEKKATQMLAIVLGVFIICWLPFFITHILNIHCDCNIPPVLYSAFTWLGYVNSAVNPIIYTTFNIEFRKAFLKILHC
Method: D2R photo-activation was evaluated in a G protein-activated inwardly rectifying K^+ channel (GIRK) activation assay. The M anchoring protein was re-designed by substituting the SNAP-tag at its external N-terminal with a HALO-tag (FIG. 3A). HEK293T were co-transfected with M, D2R and the homotetramerizing mutant of GIRK1 (F137S), making it possible to detect D2R activation as Gi/o-dependent GIRK inward-current at high external K^+ and negative holding potential. Transfected cells were patch clamped in whole-cell configuration and alternately irradiated with 440 nm light or perfused with a saturating (1 μM) concentration of dopamine to elicit maximal D2R activation.
(A) Schematic representation of D2R activation by MP-D2ago in response to light. (B, C) Representative traces of MP-D2ago with one (1×; B) or two (2×; C) branch points. (D) Summary of the maximal photo-activation of D2R by MP-D2ago relative to a saturating concentration of DA (1 μM). […] Summary of the activation and deactivation kinetics (E) and light sensitivity (F) of D2R in response to 1× or 2×MP-D2ago.
To complement our cell-targeted D2R photo-agonist, a tethered photo-antagonist for D2R was designed. The same photoswitch architecture was employed; however, in this case, one of two substituted phenyl piperazines was used as a head group (FIG. 5A). Two variant phenyl piperazines, 2,3-dichloro- and 2-methoxy-phenylpiperazine, were chosen as the core scaffold. To each of these, we appended a 3-carbon (C3) linker followed by the same PEG- and HALO substrate employed in the synthesis of P-D2ago, thereby generating potential photo-antagonists. […] A 4-carbon linker at this position was tested.
FIG. 5A-5G: Evaluation of phenylpiperazine-based MPs of D2R in HEK293T cells. A) Chemical structures of P-D2 constructs used to label the M protein. B) Schematic representation MP-D2block,C3 and MP-D2pa,C3 activity under light irradiation. CD) Patch clamp electrophysiology traces of tethered partial agonists. E) Schematic representation of dopamine blocking by MP-D2block under light irradiation. F,G) Patch clamp electrophysiology traces of tethered D2 antagonist.

[1] = UV/Vis photophysical characterization of the photoswitch; type: physicochemical
Method: FIG. 2A-2E. Synthesis of P-D2ago and photophysical characterization. A) Chemical Synthesis of P-D2ago. B) UV Vis absorbance spectra of P-D2ago (20 μM in DMSO, 24° C.) in the dark and under 415 nm irradiation. C) Wavelength scan for P-D2ago (20 μM, DMSO, 24° C.). Each wavelength is applied for 2 minutes. […] E) Thermal relaxation of P-D2ago in DMSO after 1 minute irradiation with 415 nm at 37° C. F) Synthesis of branched, photoswitchable amino indenyl dimer P-D2ago-2X.
UV Vis data were analyzed and plotted using […] Prism. Irradiation was achieved from the top of the cuvette through a fiber-optic cable. […] Absorbance (reported as Abs, in arbitrary units) was measured at 420 nm over time. Thermal Relaxation was measured after 1 min irradiation with 415 nm at 10 or 20 μM, and subsequently absorption increase was detected at 420 nm. The relaxation half-live of the cis-isomer was determined by curve fitting, using exponential one-phase decay in […] Prism. Photostationary states were determined by pre-irradiation of samples (20 uM, DMSO) for 10 min at the respective wavelengths. Samples for LCMS separation were prepared under red-light conditions in amber vials and immediately subjected to LCMS.
FIG. 8A-8E: Photophysical Characterization of P-D1block(24) A) UV Vis absorption spectra of dark-adapted (100% trans) P-D1block(24) in DMSO (20 μM), and after preirradiation with 370/460 nm for 10 min. […] C) Photostationary state (PSS) of P-D1block(24) in DMSO (20 μM, 24° C.), after preirradiation with 360/420 nm for 10 min. Detection of PSS was achieved by LCMS by separation of isomers and integration of Abs at the isosbestic point of cis- and trans-isomers at the respective elution solvent mixtures. D, E) Thermal relaxation of P-D1block(24) in 10% DMSO in PBS and 100% DMSO at 37° C., detection of Abs at 340 nm after pre-irradiation of the samples for 10 min at 360 nm.

Row | Structure (SMILES) | photo-agonism of D2R (GIRK inward current) (D2R; 440 nm light) | reversible switching ([1]; 20 μM in DMSO, alternating irradiation) | thermal back-relaxation in aqueous environment ([1]; 10% DMSO in PBS) | absorption maximum ([1]; UV/Vis, 20 μM in DMSO, 24° C.) | wavelength of maximal switching into the cis-form (maximum PSS) ([1]; wavelength scan, 20 μM, DMSO, 24° C.) | sensitivity to light, greater than P-D2ago (D2R; tethered to M) | activation kinetics, faster than P-D2ago (D2R; tethered to M, 440 nm light) | photo-antagonism of D2R activation by dopamine (D2R; tethered to M, 440 nm light, 1 uM dopamine)
1 | CCCN(CCCCNc1ccc(/N=N/c2ccc(NC(=O)CCOCCOCCOCCOCCOCCOCCOCCOCCOCCOCCOCCOCCOCCOCCOCCOCCOCCOCCOCCOCCOCCOCCOCCOCCNC(=O)CCC(=O)NCCOCCOCCCCCCCl)cc2)cc1)C1Cc2ccccc2C1 [P-D2ago] | full photo-agonism | without fatigue | exceeds the detection limit | 424 nm | 440 nm | – | – | –
2 | CCCN(CCCCNc1ccc(/N=N/c2ccc(NC(=O)CCOCCOCCOCCOCCOCCOCCOCCOCCOCCOCCOCCOCCOCCOCCOCCOCCOCCOCCOCCOCCOCCOCCOCCOCCNC(=O)CCC(NC(=O)CCC(=O)NCCOCCOCCCCCCCl)C(=O)NCCOCCOCCOCCOCCOCCOCCOCCOCCOCCOCCOCCOCCOCCOCCOCCOCCOCCOCCOCCOCCOCCOCCOCCOCCC(=O)Nc3ccc(/N=N/c4ccc(NCCCCN(CCC)C5Cc6ccccc6C5)cc4)cc3)cc2)cc1)C1Cc2ccccc2C1 (stereo not shown) [2X-P-D2ago] | same maximal activation | – | – | – | – | ~5 fold | ~2 fold | –
3 | COc1ccccc1N1CCNCC1 [2-methoxy-phenylpiperazine] | very weak partial agonism | – | – | – | – | – | – | very weak antagonism
